Here are results for 29 molecules from patent US4073913A, “N^2 -arylsulfonyl-L-argininamides and the pharmaceutically acceptable salts thereof” (Mitsubishi Chemical Industries Limited, priority 1974, dated 1978).

Read-outs that look alike come from different tables or passages of the source. Non-standard residues stand in square brackets, D forms with d. Residues, ends and D or L forms follow the SMILES beside them. ξ: configuration not given here. *: point of attachment. Dansyl = CN(C)c1cccc2c(S(=O)(=O)*)cccc12; ξPip = O=C(O)C1CCCCN1

Data set [1] can be described thus: acute toxicity (LD50), intraperitoneal administration in mice. Conditions: for LD50 values (comparison dansyl compounds): comparison with N^2 -dansyl-L-argininamides, route and species not restated; for LD50: intraperitoneal, mice (male, 20 g). It counts as in vivo, mice (male, 20 g).
The target in another data set is T1, thrombin (Bos taurus, UniProt P00735).
T1 construct: clotting of bovine fibrinogen
The data set can be described thus: fibrinogen coagulation time (concentration required to prolong the coagulation time by a factor of two). In kind it is biochemical. Conditions: bovine fibrinogen, thrombin 5 units/ml, borate saline buffer pH 7.4, 25° C; control 50-55 seconds prolonged to 100-110 seconds. The method, then:
The measurement of the fibrinogen coagulation time was conducted as follows:
Immediately after mixing, the reaction mixture was transferred from the ice bath to a bath maintained at 25° C. Coagulation times were taken as the period between the time of transference to the 25° C bath and the time of the first appearance of fibrin threads. […] The term "concentration required to prolong the coagulation time by a factor of two" is the concentration of an active ingredient required to prolong the normal coagulation time 50-55 seconds to 100-110 seconds.

Where [2] appears, read: mouse, in vivo, ip, read-out: LD50.

For the molecule `CCCCNC(=O)[C@H](CCCNC(=N)N)NS(=O)(=O)c1cccc2c(N(C)C)cccc12` [N^2 -dansyl-N-butyl-L-argininamide, reference compound], in data set [1], the “LD50 values (comparison dansyl compounds)” value stood at 75 milligrams per kilogram. For orientation: LD50 means the dose expected to kill half of the subjects tested. Regarding `COc1cc2ccc(S(=O)(=O)N[C@@H](CCCNC(=N)N)C(=O)N(CC(=O)O)CC3CCCO3)cc2cc1OC` (stereo partly drawn) [N^2-(6,7-dimethoxy-2-naphthylsulfonyl)-L-arginyl-N-tetrahydrofurfurylglycine], in data set [1] (setting [2]), the LD50 was determined as 620 mg/kg.

Turning to `CCOCCN(CCC(=O)O)C(=O)[C@H](CCCNC(=N)N)NS(=O)(=O)c1ccc2cc(OC)c(OC)cc2c1` [N^2-(6,7-dimethoxy-2-naphthylsulfonyl)-L-arginyl-N-(2-ethoxyethyl)-β-alanine], the LD50 in data set [1] (setting [2]) is 660 to 1000 mg/kg.

With `CCSCCN(CC(=O)O)C(=O)[C@H](CCCNC(=N)N)NS(=O)(=O)c1ccc2cc(OC)c(OC)cc2c1` [N^2-(6,7-dimethoxy-2-naphthylsulfonyl)-L-arginyl-N-(2-ethylthioethyl)glycine], the median lethal dose (LD50) in data set [1] (setting [2]) is greater than 1000 mg/kg. As to `COCCN(CC(=O)O)C(=O)[C@H](CCCNC(=N)N)NS(=O)(=O)c1ccc2ccc(OC)cc2c1` [N^2-(7-methoxy-2-naphthylsulfonyl)-L-arginyl-N-(2-methoxyethyl)glycine], the median lethal dose (LD50) in data set [1] (setting [2]) was determined as 2000 mg/kg.

For `COc1ccc2ccc(S(=O)(=O)N[C@@H](CCCNC(=N)N)C(=O)N3CCOCC3C(=O)O)cc2c1` (stereo partly drawn) [4-N^2-(7-methoxy-2-naphthylsulfonyl)-L-arginyl!-3-morpholinecarboxylic acid], the median lethal dose (LD50) in data set [1] (setting [2]) is greater than 1000 mg/kg.

For the molecule `COc1cc2ccc(S(=O)(=O)N[C@@H](CCCNC(=N)N)C(=O)N(CC(=O)O)C3CCCCC3)cc2cc1OC` [N^2-(6,7-dimethoxy-2-naphthylsulfonyl)-L-arginyl-N-cyclohexylglycine], the median lethal dose (LD50) in data set [1] is > 1,500 mg/kg; in data set [1] (setting [2]), 1500 mg/kg.

In the case of `COCCN(CC(=O)O)C(=O)[C@H](CCCNC(=N)N)NS(=O)(=O)c1cc(OC)c2cc(OC)ccc2c1` [N^2-(4,6-dimethoxy-2-naphthylsulfonyl)-L-arginyl-N-(2-methoxyethyl)glycine], the 50% lethal dose (LD50) in data set [1] (setting [2]) is 660 to 1000 mg/kg. Consider `COc1ccc2cc(S(=O)(=O)N[C@@H](CCCNC(=N)N)C(=O)N(CC3CCCCC3)[C@@H](C)C(=O)O)cc(OC)c2c1` [N^2-(4,6-dimethoxy-2-naphthylsulfonyl)-L-arginyl-N-cyclohexylmethylalanine], for which the 50% lethal dose (LD50) in data set [1] (setting [2]) is greater than 1500 mg/kg.

Take `COc1cc2ccc(S(=O)(=O)N[C@@H](CCCNC(=N)N)C(=O)N3Cc4ccccc4CC3C(=O)O)cc2cc1OC` (stereo partly drawn) [2-N^2-(6,7-dimethoxy-2-naphthylsulfonyl)-L-arginyl!-1,2,3,4-tetrahydroisoquinoline-3-carboxylic acid]: in data set [1] (setting [2]), the LD50 is greater than 1000 mg/kg. The same measure, in the same setting: the result for `COc1cc2ccc(S(=O)(=O)N[C@@H](CCCNC(=N)N)C(=O)N(CC(=O)O)CC3CCCCC3)cc2cc1OC` [N^2-(6,7-dimethoxy-2-naphthylsulfonyl)-L-arginyl-N-cyclohexylmethylglycine] reads greater than 1500 mg/kg; that for `COCCN(CC(=O)O)C(=O)[C@H](CCCNC(=N)N)NS(=O)(=O)c1ccc2cc(OC)c(OC)cc2c1` [N^2-(6,7-dimethoxy-2-naphthylsulfonyl)-L-arginyl-N-(2-methoxyethyl)glycine], 1900 to 2400 mg/kg. As for `CCCCN(C)C(=O)[C@H](CCCNC(=N)N)NS(=O)(=O)c1cccc2c(N(C)C)cccc12` [N^2 -dansyl-N-methyl-N-butyl-L-argininamide, reference compound], the “LD50 values (comparison dansyl compounds)” value in data set [1] was 70 milligrams per kilogram.

Turning to `Cc1ccc2ccc(S(=O)(=O)N[C@@H](CCCNC(=N)N)C(=O)N(CC(=O)O)CC3CCCO3)cc2c1` (stereo partly drawn) [N^2-(7-methyl-2-naphthylsulfonyl)-L-arginyl-N-tetrahydrofurfurylglycine], the median lethal dose (LD50) in data set [1] (setting [2]) was found to be 600 mg/kg. `CN(C)c1cccc2c(S(=O)(=O)N[C@@H](CCCNC(=N)N)C(=O)N3CCCCC3C(=O)O)cccc12` (stereo partly drawn) [1-N^2-(5-dimethylamino-1-naphthylsulfonyl)-L-arginyl!-2-piperidinecarboxylic acid] (Dansyl-Arg-[ξPip]-OH): in data set [1] (setting [2]), the LD50 lay in the range of 700 to 1000 mg/kg.

On to `COCCN(CC(=O)O)C(=O)[C@H](CCCNC(=N)N)NS(=O)(=O)c1cc(OC)c2cc(OC)ccc2c1` [compound 23], for which, at thrombin, the IC (2-fold clotting time) was determined as 4 µM. As to `COc1cc2ccc(S(=O)(=O)N[C@@H](CCCNC(=N)N)C(=O)N(CCC(=O)O)CCc3ccccc3)cc2cc1OC` [compound 56], on thrombin, the IC (2-fold clotting time) was determined as 50 µM.

Take `COc1cc2ccc(S(=O)(=O)N[C@@H](CCCNC(=N)N)C(=O)N(Cc3ccccc3)C(C)C(=O)O)cc2cc1OC` (stereo partly drawn) [compound 120]: the IC (2-fold clotting time) against thrombin is 2.5 µM. Still for that read-out and setting: the result for `COc1ccc2cc(S(=O)(=O)N[C@@H](CCCNC(=N)N)C(=O)N(CC3CCCCC3)C(C)C(=O)O)cc(OC)c2c1` (stereo partly drawn) [compound 126] reads 4.5 µM; that for `COCCCN(CC(=O)O)C(=O)[C@H](CCCNC(=N)N)NS(=O)(=O)c1ccc2cc(OC)c(OC)cc2c1` [compound 19], 5 µM. Consider `CC1CCN(C(=O)[C@H](CCCNC(=N)N)NS(=O)(=O)c2cccc3ccccc23)C(C(=O)O)C1` (stereo partly drawn) [1-N^2-(1-naphthylsulfonyl)-L-arginyl!-4-methyl-2-piperidinecarboxylic acid], for which the median lethal dose (LD50) in data set [1] (setting [2]) was 700 to 1000 mg/kg. Consider `COc1ccc2ccc(S(=O)(=O)N[C@@H](CCCNC(=N)N)C(=O)N(CC(=O)O)Cc3ccco3)cc2c1` [compound 162], for which the IC (2-fold clotting time) at thrombin is 0.2 µM. Turning to `Cc1ccc2ccc(S(=O)(=O)N[C@@H](CCCNC(=N)N)C(=O)N(CC(=O)O)CC3CCCCC3)cc2c1` [compound 146], at thrombin, the IC (2-fold clotting time) is 14 µM. On to `COc1cc2ccc(S(=O)(=O)N[C@@H](CCCNC(=N)N)C(=O)N3Cc4ccccc4C3C(=O)O)cc2cc1OC` (stereo partly drawn) [2-N^2-(6,7-dimethoxy-2-naphthylsulfonyl)-L-arginyl!-1-isoindolinecarboxylic acid], for which the LD50 in data set [1] (setting [2]) was greater than 1000 mg/kg. Take `COCCN(CC(=O)O)C(=O)[C@H](CCCNC(=N)N)NS(=O)(=O)c1cccc2c1CCCC2` [compound 132]: on thrombin, the IC (2-fold clotting time) came out at 10 µM. Regarding `CCOCCN(CCC(=O)O)C(=O)[C@H](CCCNC(=N)N)NS(=O)(=O)c1ccc2cc(OC)c(OC)cc2c1` [compound 21], the IC (2-fold clotting time) against thrombin came out at 4 µM. Take `CCCCN(C(=O)[C@H](CCCNC(=N)N)NS(=O)(=O)c1ccc2cc(OC)c(OC)cc2c1)[C@@H](C)C(=O)O` [N^2-(6,7-dimethoxy-2-naphthylsulfonyl)-L-arginyl-N-butylalanine]: the 50% lethal dose (LD50) in data set [1] (setting [2]) is greater than 1500 mg/kg.

As for `COCCN(CC(=O)O)C(=O)[C@H](CCCNC(=N)N)NS(=O)(=O)c1ccc2cc(OC)c(OC)cc2c1` [compound 13], at thrombin, the IC (2-fold clotting time) was found to be 0.5 µM. Regarding `CCCCN(CC(=O)O)C(=O)[C@H](CCCNC(=N)N)NS(=O)(=O)c1ccc2ccc(C)cc2c1` [compound 143], on thrombin, the IC (2-fold clotting time) turned out to be 0.3 µM.
